Assay results taken from US5919797A, “Halogenated naphthyl methoxy piperidines for mapping serotonin transporter sites” (Emory University, priority 1997, dated 1999).
“Also recorded” adds a separate entry of the source. Counter-ions that a name gives are not always drawn. Like-named read-outs stand apart in the source and are kept apart here.

Tests used:
serotonin transporter [1] = target: T1, serotonin transporter (Rattus norvegicus, UniProt P31652); experiment: inhibition of [3H]-citalopram binding to rat cortical homogenates (competitive radioligand binding assay)
T1 construct: from tissue; host or cells: rat cerebral cortex homogenate
T1 sequence (P31652 whole entry): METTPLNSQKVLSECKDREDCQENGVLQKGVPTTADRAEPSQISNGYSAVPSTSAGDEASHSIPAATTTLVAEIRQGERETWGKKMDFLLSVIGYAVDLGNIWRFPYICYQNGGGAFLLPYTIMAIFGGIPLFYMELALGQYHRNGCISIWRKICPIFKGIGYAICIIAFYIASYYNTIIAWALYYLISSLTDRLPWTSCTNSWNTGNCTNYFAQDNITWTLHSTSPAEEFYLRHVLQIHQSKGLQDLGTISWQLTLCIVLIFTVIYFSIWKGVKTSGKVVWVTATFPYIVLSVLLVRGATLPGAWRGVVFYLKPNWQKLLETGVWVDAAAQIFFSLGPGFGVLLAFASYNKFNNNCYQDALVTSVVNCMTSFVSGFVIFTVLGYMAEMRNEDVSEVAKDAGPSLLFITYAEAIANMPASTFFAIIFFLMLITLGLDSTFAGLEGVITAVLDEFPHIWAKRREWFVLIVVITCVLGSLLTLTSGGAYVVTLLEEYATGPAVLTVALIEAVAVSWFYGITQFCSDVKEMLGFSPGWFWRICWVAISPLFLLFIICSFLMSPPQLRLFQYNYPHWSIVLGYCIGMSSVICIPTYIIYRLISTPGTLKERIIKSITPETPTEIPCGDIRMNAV
Excerpt: Compounds of the invention have activity as specific ligands of the serotonin transporter. In particular, the 1-halonaphthalenyl pharmacophore has high affinity for the serotonin transporter. […] Halogen substituents can be in naturally-occurring or radioisotopic form.
Many compounds have been described in the literature as selective inhibitors of the presynaptic reuptake of serotonin (5-hydroxytryptamine,5-HT). […] A good correlation exists between the capacities of a variety of drugs to inhibit [^3 -H]-citalopram binding and [^3 -H]-5HT uptake in rat cortex, thus allowing this binding test to be used in screening for new 5-HT uptake inhibitors. […]

[2] = tested on: presynaptic reuptake of serotonin; details: humans; depression, obsessive-compulsive and eating disorders, alcoholism, drug addiction; cited from earlier work
serotonin transporter [3] = details: radiolabeled with carbon-11 and fluorine-18; cited from earlier work
serotonergic neurons = experiment: biodistribution studies in rats of radiolabelled compound; assay type: in vivo, rat; details: 123-I labelled
5HT3 receptor = experiment: inhibition of [3H] GR65630 binding to serotonergic synaptosomal preparation
Excerpt: 5HT3 receptor activity. It blocked the binding of [3H] GR65630 to […]

[4] = tested on: serotonin transporter sites; details: carbon-11 labelled, vs previously tested PET serotonin transporter ligands; cited from earlier work
[5] = Table 1, rat cortical tissue, read-out: [3H]-Citalopram Binding IC50
[6] = Table 1, rat cortical tissue, read-out: [3H]-Citalopram Binding Ki
[7] = concentration needed to achieve 50% inhibition of citalopram binding (IC50), rat cortical homogenates
[8] = serotonergic synaptosomal preparation

Compound | IC50 (serotonin transporter [1]; [5]) [nM] | Ki (serotonin transporter [1]; [6]) [nM] | IC50 (serotonin transporter [1]; [7]) [nM] | inhibition of [3H]-citalopram binding / affinity for the serotonin transporter, in words (serotonin transporter [1]; rat cortical tissue) | further results
Brc1c(COC2CCNCC2)ccc2cc(I)ccc12 [Compound 7, 4-[(1-Bromo-6-iodo-2-naphthalenyl)methoxy]piperidine hydrochloride] | 60 | 58.4 | – | – | –
Ic1c(COC2CCNCC2)ccc2ccccc12 [Compound 2, 4[(1-Iodo-2-naphthalenyl)methoxyl]piperidine hydrochloride] | – | – | 4.1 | – | Ki (serotonin transporter [1]): 4.13 nM; IC50 (serotonin transporter [1]; [3H]-Citalopram Binding IC50, Table 1, rat cortical tissue): 5.9 nM
Brc1c(COC2CCNCC2)c(I)cc2ccccc12 [Compound 5, 4-[(1-Bromo-3-iodo-2-naphthalenyl)methoxy]piperidine hydrochloride] | 54.6 | 36.9 | – | – | –
COCCCC/C(=N\OCCN)c1ccc(C(F)(F)F)cc1 [fluvoxamine] | – | – | – | – | therapeutic value, in words [2]: considerable therapeutic value
Brc1c(COC2CCNCC2)cc(I)c2ccccc12 [Compound 6, 4-[(1-bromo-4-iodo-2-naphthalenyl)methoxy]piperidine hydrochloride] | 24.6 | 16.7 | – | – | –
Cl.Fc1c(COC2CCNCC2)ccc2ccccc12 [Compound 3, 4-[(1-Fluoro-2-naphthalenyl)methoxy]-piperidine hydrochloride] | 5.74 | 3.37 | 3.37 | inhibitory activity comparable to that of fluoxetine and fluvoxamine | –
O=[N+]([O-])c1ccc2nc(N3CCNCC3)ccc2c1 [nitroquipazine] | – | – | – | – | image quality / in vivo affinity and selectivity, in words (serotonin transporter [3]): poor quality images
[123I]c1c(COC2CCNCC2)ccc2ccccc12 [Compound 58] | – | – | – | – | selective accumulation of radioactivity in serotonergic neurons (serotonergic neurons): did not lead to selective accumulation of the radioactivity in serotonergic neurons
c1ccc2nc(COC3CCNCC3)ccc2c1 [Compound 70, 4-[(2-quinolenyl)methoxy]piperdine hydrochloride] | > 100 | > 100 | – | devoid of affinity for the serotonin transporter | 5-HT3 antagonism, in words (5HT3 receptor; hydrochloride): high selectivity as an antagonist of 5-HT3 function; also recorded: potent inhibitor; IC50 (5HT3 receptor; [8]): 7.4 nM; Ki (5HT3 receptor; [8]): 3.24 nM
Brc1c(COC2CCNCC2)ccc2ccccc12.Cl [Compound 1, 4-[(1-Bromo-2-naphthalenyl)methoxy]piperidine hydrochloride] | 0.02 | 0.014 | 0.015 | most potent inhibitor | potency relative to fluoxetine, inhibition of [3H]-citalopram binding (serotonin transporter [1]; rat cortical tissue, vs fluoxetine (Prozac)): 100 fold
[11CH3]Sc1ccc([C@H]2CN3CCC[C@H]3c3ccccc32)cc1 [Carbon-11 McN-5652Z] | – | – | – | – | accumulation in brain regions rich in serotonergic neurons, in words [4]: greatest accumulation in brain regions rich in serotonergic neurons
Cl.Clc1c(COC2CCNCC2)ccc2ccccc12 [Compound 4, 4-[(1-Chloro-2-naphthalenyl)methoxy]-piperidine hydrochloride] | 2.12 | 1.24 | 1.24 | inhibitory activity comparable to that of fluoxetine and fluvoxamine | –
